Data set [1] has as its system LNCaP cells. Briefly: Apoptotic morphological changes, phase contrast. It counts as cell-based, human. The settings on record: 25 μM, 24 h.
The test system of data set [2] is ubiquitinated proteins, Bax, p27, IκBα in Jurkat T cells. Briefly: Western blot for ubiquitinated proteins and proteasome targets (Bax, p27, IκBα) in Jurkat T cells. The class given is cell-based, human. The settings on record: 25 μM. The method, then: (§1) Whole cells extracts were prepared as described previously (An B, Goldfarb R H, Siman R, Dou Q P. Novel dipeptidyl proteasome inhibitors overcome Bc1-2 protective function and selectively accumulate the cyclin-dependent kinase inhibitor p27 and induce apoptosis in transformed, but not normal, human fibroblasts. Cell Death Differ 1998; 5: 1062-75.). Analysis of Bax, IKBa, p27, PAW, and ubiquitinated protein expression were performed using monoclonal or polyclonal antibodies according to previously reported protocols (An B et. al.).
To determine what effects the synthetic tea analogs had on the proteasome in vivo, Jurkat cells were treated with 25 μM of each synthetic compound for either 4 or 24 h, with (−)-EGCG as a control (FIGS. 9A and 9B). […] This is consistent with the idea that protected analogs are potent inhibitors of the proteasome at an earlier time point and that after 24 h of treatment the ubiquitinated proteins are being depleted by deubiquitinating enzymes. […] The putative ubiquitinated IκBα band is still found in cells treated with 2a, 3a, and 4a (FIG. 9B, Lanes 9, 5, 7). The presumed ubiquinated IκBα band is now absent in the 24 h treatment, possibly due to deubiquitination (FIG. 9B). Actin was used as a loading control in this experiment.
The pro-apoptotic protein Bax and the cyclin-dependent kinase inhibitor p27 are natural proteasome targets. If the peracetate-protected polyphenols inhibit the intact proteasome activity, we would expect accumulation of Bax and p27 in these cells. To test this idea, Jurkat T cells were treated with both protected and unprotected compounds and lysates were analyzed by Western blot using specific antibodies to Bax and p27 (FIG. 15). After 4 h of treatment, the peracetate-protected analogs 24* and 19*, but not their unprotected analogs, were able to increase accumulation of both Bax (by 3- and 2.5-fold, respectively) and p27 (6- and 11-fold, respectively) (FIG. 15A). After 24 h treatment, Bax levels were increased in cells treated with all of the peracetate-protected compounds (13-, 12-, 40- and 36-fold, respectively, by 24*, 19*, 21* and 23*).
On the technique in general: A western blot detects proteins with antibodies after separation by electrophoresis.

For data set [3], the system named is Jurkat T cells. Briefly: Western blot for PARP cleavage in Jurkat T cells. As to conditions: 25 μM, 24 h. The class given is cell-based, human. The method, then: as §1
(§2) It has been shown that proteasome inhibition can induce apoptosis in a wide variety of cancer cells, but not in normal, non-transformed cells (An B et al). Jurkat T cells are treated with 25 μM of each of the selected polyphenols and their protected analogs for 24 h to investigate their abilities to induce apoptotic cell death. […] The unprotected 2 induced much less apoptosis (21%), while 25 μM VP-16, used as a positive control, induced 92% apoptosis (FIGS. 10C and 10D). Counterstain with DAPI, which binds to the minor groove in A-T rich regions of DNA, was decreased drastically in apoptotic cells (FIG. 10C), consistent with DNA fragmentation in late stage apoptosis.
To determine if the cell death observed (FIG. 16) was due to the induction of apoptosis, a similar experiment was performed in Jurkat T cells, followed by measurement of caspase-3 activation and PARP cleavage.

Data set [4] concerns Jurkat T cells. As to the kind of experiment: Trypan blue cell death assay in Jurkat T cells. The class given is cell-based, human. The settings on record: 24 h.
In data set [5] the test system is MCF-7 cells. As to the kind of experiment: MTT assay. It counts as cell-based, human. As to conditions: 24 h. The method, then: MTT was used to determine effects of polyphenols on overall proliferation of tumor cells. Human breast MCF-7 cells were plated in a 96 well plate and grown to 70-80% confluency, followed by addition of analogs for 24 h. MTT (1 mg/ml) in PBS was then added to wells and incubated at 37° C. for 4 hours to allow for complete cleavage of the tetrazolium salt by metabolically active cells. Next, the MTT was removed and 100 μl of DMSO was added and colorimetric analysis performed using a multilabel plate reader at 560 nm (Victor^3; Perkin Elmer). Absorbance values plotted are the mean from triplicate experiments.
Treated breast cancer (MCF-7) cells were then treated with 5 or 25 μM of peracetate-protected analogs for 24 h, followed by MTT analysis to determine their effects on cell proliferation. Compound 1 at 25 μM inhibited cellular proliferation by 40% (FIG. 11A).
In general terms: Formazan colour is commonly taken as a measure of viable cells.

Data set [6] has as its system LNCaP cells. Briefly: Soft agar colony formation assay. The class given is cell-based, human. The settings on record: 25 μM once at plating, 21 days.
Data set [7] can be described thus: Stability test in RPMI 1640 culture medium, HPLC. The settings on record: 37° C.
Description: The stability of 1 with (−)-EGCG in a culture medium (RMPI) is compared, which mimics the body fluid with a pH value around 8. (−)-EGCG or 1 at 0.1 mM was incubated in 1 mL RMPI at 37° C. at indicated times. At different time points, the medium was analyzed by HPLC for the amount of tested compound remaining.
Data set [8] addresses T1, purified rabbit 20s proteasome (Oryctolagus cuniculus, UniProt G1T4Q9).
T1 construct: purchased Boston Biochem (Cambridge, Mass.)
T1 sequence (G1T4Q9 1-263): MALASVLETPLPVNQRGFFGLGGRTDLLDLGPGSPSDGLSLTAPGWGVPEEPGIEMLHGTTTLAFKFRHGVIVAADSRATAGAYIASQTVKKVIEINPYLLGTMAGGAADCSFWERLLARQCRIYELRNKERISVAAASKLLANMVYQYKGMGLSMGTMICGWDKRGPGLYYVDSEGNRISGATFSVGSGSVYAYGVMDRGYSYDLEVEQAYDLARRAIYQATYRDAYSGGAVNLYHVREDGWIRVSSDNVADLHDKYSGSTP
Briefly: Inhibition of chymotrypsin-like activity of purified 20S proteasome. The class given is biochemical. The method, then:
Measurement of the chyrnotrypsin-like activity of the 20s proteasome was performed by incubating 0.5 μg of purified rabbit 20s proteasome with 40 μM fluorogenic peptide substrate, Suc-Leu-Leu-Val-Tyr-AMC, with or without various concentrations of natural and synthetic tea polyphenols as described previously (Nam S et. al.).
In order to test this hypothesis, proteasome activity was tested both in vitro and in intact Jurkat T cells with either 1 or (−)-EGCG (as a positive control). First, 1 and commercial (−)-EGCG were dissolved in DMSO and their effects on the chymotrypsin-like activity of purified 20S proteasomes were measured. […] In contrast, (−)-EGCG at 10 μM inhibited 80-90% of the proteasomal chymotrypsin-like activity. Therefore, as predicted, 1 outside of a cellular system is not a proteasome inhibitor.
Up to 25 μM of all protected and unprotected compounds were incubated with a purified 20s proteasome and a fluorogenic substrate for chyrnotrypsin activity for 30 min. The half-maximal inhibitory concentration or IC50 was then determined. […] This is consistent with the results above.

The target of data set [9] is T2, proteasomal chymotrypsin-like activity in Jurkat T cells (Homo sapiens, UniProt P28074).
T2 construct: measurement of the proteasomal chymotrypsin-like activity in the prepared lysates; endogenous in cells; host or cells: Jurkat T cells (human leukemia)
T2 sequence (P28074 60-263): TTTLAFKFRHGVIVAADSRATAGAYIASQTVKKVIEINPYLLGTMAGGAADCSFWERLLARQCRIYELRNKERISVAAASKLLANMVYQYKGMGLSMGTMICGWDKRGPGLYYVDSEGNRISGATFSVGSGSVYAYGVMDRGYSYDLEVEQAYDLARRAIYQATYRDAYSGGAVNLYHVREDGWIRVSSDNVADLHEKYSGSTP
As to the kind of experiment: Proteasomal chymotrypsin-like activity in intact Jurkat T cells / their lysates. It counts as cell-based. As to conditions: 25 μM, 24 h, Jurkat T. The method, then: VA-13 or WI-38 cells were grown in 24 well plates (2 ml/well) to 70-80% confluency, followed by 24 h treatment with […] (−)-EGCG, 2, or 2a. […] Suc-Leu-Leu-Val-Tyr-AMC substrate was then added for 2.5 h at 37° C. and the chyrnotrypsin-like activity was measured as described above. Alternatively, cells were treated with each compound at 25 μM for 4 or 24 h, and harvested and lysed. Suc-Leu-Leu-Val-Tyr-AMC (40 μM) was then incubated with the prepared cell lysates for 2.5 h and the chymotrypsin-like activity was measured as described above.
If 1 converts to (−)-EGCG inside the cells, proteasome inhibition in vivo should be detected. To examine this possibility, human Jurkat cells was treated with 25 μM of 1 or (−)-EGCG for 12 or 24 h, followed by measurement of proteasome activity by using a chymotrypsin-like specific fluorogenic substrate in intact cells (FIG. 6a) or Western blot for ubiquinated proteins (FIG. 6b). […] To analyze the intracellular level of polyubiquitinated proteins, cells were lysed after 12 hours incubation and subjected to Western blotting. […] It is possible that the amount of EGCG generated from 1, and thus its biological activity inside the cells depends on a combination of factors: the relative permeability of 1 into the cells, the amount of esterase enzymes and the amount of anti-oxidants that may be present in the cells at any time.
To determine whether the unprotected and protected polyphenol analogs could inhibit the proteasomal activity in intact cells, leukemia Jurkat T cells were treated with each compound at 25 μM for 4 and 24 h, followed by collection of cell pellets and measurement of the proteasomal chymotrypsin-like activity in the prepared lysates.

In data set [10] the test system is phosphorylated Akt (p-Akt). As to the kind of experiment: Western blot for phosphorylated Akt in Jurkat T cells. The class given is cell-based, human. As to conditions: 25 μM, 24 h. The method, then:
(−)-EGCG and 1 were incubated with Jurkat T cells for 24 h at 5, 10 and 25 μM, followed by Western blot analysis using a specific antibody to phosphorylated Akt (FIG. 7). […] Actin was used as a loading control.

The test system of data set [11] is VA-13 cells. As to the kind of experiment: Nuclear staining (Hoechst) for apoptotic morphology, VA-13. The settings on record: 25 μM, 24 h. It counts as cell-based, human. The method, then:
After each drug treatment, both detached and attached VA-13 and WI-38 cells were stained Hoechst 33342 to assess for apoptosis. Briefly, cells were washed 2× in PBS, fixed for 1 h with 70% ethanol at 4° C., washed 3× in PBS, and stained with […] Hoechst for 30 min in the dark at room temperature. Detached cells were plated on a slide and attached cells were visualized on the plate with a fluorescent microscope at 10× or 40× resolution (Zeiss, Germany). Digital Scientific obtained images with AxioVision 4.1 and adjusted using Adobe Photoshop 6.0.
Next, apoptotic nuclear morphology is examined after treatment with natural (−)-EGCG, 2, and 2a (FIG. 12B). […] A comparison among all the protected analogs was then performed using 25 μM for 24 h. […] All of the protected analogs induced apoptosis in transformed (VA-13), but not normal (WI-38) cells (FIGS. 12B and 12C).

In data set [12] the test system is VA-13 cells. As to the kind of experiment: Immunostaining of apoptotic cells with anti-cleaved PARP-FITC. It counts as cell-based, human. As to conditions: 25 μM, 24 h. The method, then:
Immunostaining of apoptotic cells was performed by addition of a FITC-conjugated polyclonal antibody that recognizes cleaved poly(ADP-ribose) polymerase (PARP) and visualized on an Axiovert 2 5 (Zeiss; Thornwood, N.Y.) microscope. Cells were grown to about 80% confluency in 60 mm dishes. VA-13 cells were then treated with VP-16, 2, or 2a (25 μM) for 24 h. Following treatment, both suspension and adhering cells were collected and washed twice in PBS pH 7.4. The cells were washed between all steps listed below and all washes are 1 min duration with PBS. Cells were then fixed in ice-cold 70% ethanol, permeabilized in 0.1% Triton-X-100 and blocked for 30 min in 1% bovine serum albumin (BSA) at room temperature. Incubation with the primary FITC-conjugated-p85/PARP antibody was for 30 min at 4° C. in the dark with mild shaking. Cell suspension was then transferred to glass slides in the presence of Vector Shield mounting medium with DAPI. Images were captured using AxioVision 4.1 and adjusted using Adobe Photoshop 6.0 software. Cell death was quantified by counting the number of apoptotic cells over the total number of cells in the same field. Data are mean of duplicate experiments ±SD.
as §2

The results in this text go back to patent US8193377B2, “(−)-epigallocatechin gallate derivatives for inhibiting proteasome” (The Hong Kong Polytechnic University, priority 2004, dated 2012).

SMILES strings stand for the structures. pIC50: −log10 of the molar value.

On to `CC(=O)Oc1cc(OC(C)=O)cc(C(=O)O[C@@H]2Cc3c(OC(C)=O)cc(OC(C)=O)cc3O[C@H]2c2cc(OC(C)=O)c(OC(C)=O)c(OC(C)=O)c2)c1` (relative stereo) [Compound 4a, (2S*,3R*)-trans-5,7-Bis(acetyloxy)-2-[3,4,5-tris(acetyloxy)phenyl]chroman-3-yl 3,5-bis(acetyloxy)benzoate], for which the apoptotic morphological changes result in data set [1] was “dramatic round-up, detachment, and cellular fragmentation”. Further, the “accumulation of p27” value in data set [2] (24 h) is recorded as “Accumulation of p27”. Further, the “time course of ubiquitinated protein accumulation” value in data set [2] (up to 8 h) was “as early as 2 h and lasting up to 8 h”. Further, in data set [3], the “apoptosis-specific PARP cleavage” value is given as “induced apoptosis-specific PARP cleavage”. For the same molecule, in data set [4] (25 μM), the “cell death (trypan blue)” value was 83%. Moreover, the “inhibition of cellular proliferation” value worked out at 50% in data set [5] (5 μM) and 70% in data set [5] (25 μM). The “colony formation in soft agar” value in data set [6] is “most potent inhibitors of colony formation”.

For the molecule `CC(=O)Oc1cc(OC(C)=O)c2c(c1)O[C@H](c1cc(OC(C)=O)c(OC(C)=O)c(OC(C)=O)c1)[C@H](OC(=O)c1cc(OC(C)=O)c(OC(C)=O)c(OC(C)=O)c1)C2` [Compound 1, peracetate (−)-EGCG], the “time after which compound disappeared completely” value in data set [7] (0.1 mM in RPMI, pH around 8) worked out at 2 h. Besides, in [7] (RPMI culture medium), the “stability relative to (−)-EGCG” value amounted to 6 times. For the same molecule, the “inhibition of proteasomal chymotrypsin-like activity” value in data set [8] (10 μM, purified 20S proteasome) was “completely inactive”. Besides, the apoptotic morphological changes entry in data set [1] is recorded as “mild morphological changes”. Moreover, the “level of ubiquitinated proteins” value in [2] (12 h) was “comparable levels of ubiquitinated proteins to that of natural (−)-EGCG”. The “inhibition of proteasome activity in intact cells” value in [9] is recorded as 42%. The “reduction of p-Akt level (densitometry)” value in data set [10] stood at 73%. Also, the cell death result in data set [4] (10 μM) was “up to 15%”. For the same molecule, the “inhibition of cellular proliferation” value in [5] (25 μM) is given as 40%.

`O=C(O[C@@H]1Cc2c(O)cc(O)cc2O[C@H]1c1cc(O)c(O)c(O)c1)c1cccc(O)c1` (relative stereo) [Compound 2, (2S*,3R*)-trans-5,7-Bis(hydroxy)-2-[3,4,5-tris(hydroxy)phenyl]chroman-3-yl 3-(hydroxy)benzoate]: the apoptotic nuclear morphology result in [11] is recorded as “little or no apoptosis”. The pIC50 in data set [8] (up to 25 μM, 30 min incubation, read-out: IC50) was ~5.00. Further, the “apoptotic cells (p85 cleaved PARP)” value in data set [12] was 21%.

In general, pIC50 refers to −log10 of the IC50, conventionally taken in molar units.
